Measurements published in ChEMBL document CHEMBL1201862, “PubChem BioAssay data set” (2004).
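Values below derive from 48-hour exposures of cells grown in 96-well plates, with endpoints linearly interpolated between the two concentrations bracketing the appropriate inhibition level. GI50 = concentration required for 50% inhibition of growth.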 The source made the active and inactive calls. Cut-off read from the data, not from the text of the source: active = GI50 up to about 1.1 µM and inactive = higher.

Assays:
Test in all cases: NCI tumour cell line growth inhibition, 48 h
A549 = system: A549
CAKI-1 = system: CAKI-1
DMS-114 = system: DMS-114
EKVX = system: EKVX
IGROV-1 = system: IGROV-1
KM12 = system: KM12
MDA-MB-231 = system: MDA-MB-231
MOLT-4 = system: MOLT-4
NCI/ADR-RES = system: NCI/ADR-RES
OVCAR-5 = system: OVCAR-5
OVCAR-8 = system: OVCAR-8
RPMI-8226 = system: RPMI-8226
SF-295 = system: SF-295
SK-MEL-28 = system: SK-MEL-28
SK-MEL-2 = system: SK-MEL-2
SK-MEL-5 = system: SK-MEL-5
SNB-19 = system: SNB-19
SNB-78 = system: SNB-78
UACC-257 = system: UACC-257
UACC-62 = system: UACC-62

SMILES	GI50 (A549)	GI50 (CAKI-1)	GI50 (DMS-114)	GI50 (EKVX)	GI50 (IGROV-1)	GI50 (KM12)	GI50 (MDA-MB-231)	GI50 (MOLT-4)	GI50 (NCI/ADR-RES)	GI50 (OVCAR-5)	GI50 (OVCAR-8)	GI50 (RPMI-8226)	GI50 (SF-295)	GI50 (SK-MEL-28)	GI50 (SK-MEL-2)	GI50 (SK-MEL-5)	GI50 (SNB-19)	GI50 (SNB-78)	GI50 (UACC-257)	GI50 (UACC-62)
C/C=C(\N=C=S)C(=O)OC1C(COC(C)=O)OC([C@]2(O)CC(=O)C(N)=C(C(=O)O)C2=O)C(O)C1OC1CC(OC)C(O)([C@@H](C)OC(=O)[C@@H](C)CC)C(C)O1 (stereo partly drawn)	33.7 µM (inactive)	19.6 µM (inactive)	6.68 µM (inactive)	12.6 µM (inactive)	17.7 µM (inactive)	7.94 µM (inactive)	19.6 µM (inactive)	2.44 µM (inactive)	94.4 µM (inactive)	20.7 µM (inactive)	5.65 µM (inactive)	2.11 µM (inactive)	18.1 µM (inactive)	7.66 µM (inactive)	9.33 µM (inactive)	14.8 µM (inactive)	11.9 µM (inactive)	5.21 µM (inactive)	15.4 µM (inactive)	5.31 µM (inactive)
C=C(C)C(=O)/N=C(\N)NC#N	168 µM (inactive)	24.4 µM (inactive)	30.5 µM (inactive)	> 54 µM (inactive)	> 46.9 µM (inactive)	59 µM (inactive)	48.2 µM (inactive)		35.9 µM (inactive)	168 µM (inactive)	31.4 µM (inactive)	10.6 µM (inactive)	> 90.2 µM (inactive)	28.9 µM (inactive)	47.2 µM (inactive)	75.2 µM (inactive)	182 µM (inactive)	48.3 µM (inactive)	29.9 µM (inactive)	34.7 µM (inactive)
COC1/C=C\C=C(/C)C(=O)Nc2cc3nc4ccc(Br)cc4oc-3c(c2=O)CC(C)CC(OC)C(O)C(C)/C=C(\C)C1OC(N)=O (stereo not drawn)	3.61 µM (inactive)	0.292 µM (active)	0.0604 µM (active)	3.17 µM (inactive)	0.436 µM (active)	2.26 µM (inactive)	0.00849 µM (active)	< 0.0103 µM (active)		1.64 µM (inactive)	0.09 µM (active)	0.119 µM (active)	12.6 µM (inactive)	0.0137 µM (active)	0.0741 µM (active)	0.178 µM (active)	13 µM (inactive)	0.998 µM (active)	0.0556 µM (active)	0.0391 µM (active)
N#Cc1cccc(N2C(=O)C3C4C=CC(C3C2=O)C2C(=O)N(c3cccc(C#N)c3)C(=O)C42)c1 (stereo not drawn)	51.2 µM (inactive)	55.5 µM (inactive)	16.3 µM (inactive)	> 100 µM (inactive)	29.7 µM (inactive)	> 56.2 µM (inactive)	> 51.5 µM (inactive)	41.8 µM (inactive)	> 100 µM (inactive)	> 63.1 µM (inactive)	37.8 µM (inactive)	> 56.2 µM (inactive)	17.1 µM (inactive)	> 63.1 µM (inactive)	22.8 µM (inactive)	> 63.1 µM (inactive)	31.2 µM (inactive)	12.7 µM (inactive)	> 63.1 µM (inactive)	54 µM (inactive)
